Results from patent US20090305969A1, “Skin Repair Accelerating Therapeutic Agent Containing Desacyl Ghrelin and Derivatives Thereof as Active Ingredient” (priority 2005, published 2009).
Where no end group is shown, it is not given here. The star is where a group is joined. Octanoyl = CCCCCCCC(=O)*

How the values were obtained:
skin cell of rat fetus = assay: Intracellular calcium increasing activity in single cultured skin cell of rat fetus (Fura-2 calcium imaging); assay type: cell-based; conditions: for cell response in calcium imaging (FIG. 1 curves): single fetal rat skin cell, ghrelin and desacyl ghrelin added to different cells, concentration not given
Experimental: A Wistar rat on the 17th day of pregnancy underwent laparotomy under anesthesia for fetus extraction. A small piece of skin was collected from the fetus, treated with collagenase in cold Hank's solution, digested with papain, and mechanically separated by pipetting. This gave a dispersion liquid of the fetal skin cells. A single cell was obtained from the dispersion liquid, ghrelin was added thereto, and calcium imaging was performed. For the calcium imaging, a calcium imaging device (IMACS, Hamamatsu Photonics) was used. That is, the ratio of the emission at a wavelength of 510 nm was measured when excitation was performed by 340 nm/380 nm light. Fura-2 was used as a calcium imaging agent. Desacyl ghrelin derived from a rat (SEQ ID NO: 3) was used.
In FIG. 1, I, II and III are the points at which a photograph was taken, but the photographs are omitted from the present description. […] Ghrelin and desacyl ghrelin were added to different cells, respectively.
It was shown that a receptor that responds to desacyl ghrelin existed in the skin cell of the rat fetus, and that addition of desacyl ghrelin increased intracellular calcium, inducing the activity of desacyl ghrelin.

cultured fetal skin cell = assay: Proliferation activity in cultured fetal skin cell (BrdU uptake, Proliferation ELISA); assay type: cell-based, rat; conditions: 24 hours incubation, BrdU 10 μM, versus control medium, FIG. 2
Experimental: The skin cells of a rat fetus were collected from a Wistar rat on the 17th day of pregnancy, and a dispersion liquid thereof was obtained in the same manner as in Example 1. The dispersed cells were suspended in a MCDB153HAA medium (F-Peptide Co., Ltd., Yamagata, Japan) containing 2% fetal bovine serum, penicillin (100 U/mL), streptomycin (100 μg/mL) and epidermal growth factor EGF (5 ng/mL), and sowed on a polyethyleneimine coated 96-hole multi-well plate in an amount of 3×10^4 cells/well. Desacyl ghrelin (0.05 to 500 μmol/mL (nM)) or desacyl ghrelin (1-15)-NH2 (SEQ ID NO: 22) (0.001 to 1 μmol/mL (nM)) and 5-bromo-2′-deoxyuridine (BrdU) (10 μM) were added thereto, which was then incubated for 24 hours. A medium containing neither desacyl ghrelin nor desacyl ghrelin (1-15)-NH2 was used as a control. After the culture was over, cells were collected, and then uptake quantity of BrdU into the fetal skin cell was measured using Proliferation ELISA Kit (Roche Diagnostic GmbH. Manheim, Germany) to consider the skin cell growth activity.
Uptake of BrdU increased when desacyl ghrelin or desacyl ghrelin (1-15)-NH2 acted on a cultured fetal skin cell.

Row | Substance | intracellular calcium (skin cell of rat fetus; 1×10^−6 M, skin cell of a single rat fetus, Fura-2 ratio 340 nm/380 nm, FIG. 1) | cell response in calcium imaging (FIG. 1 curves) (skin cell of rat fetus) | uptake of BrdU into the fetal skin cell (cultured fetal skin cell; desacyl ghrelin 0.05 to 500 μmol/mL (nM)) | uptake of BrdU into the fetal skin cell (cultured fetal skin cell; desacyl ghrelin (1-15)-NH2 0.001 to 1 μmol/mL (nM))
1 | desacyl ghrelin: Ghrelin peptide without the acyl (octanoyl) group at the third serine; rat sequence GSSFLSPEHQKAQQRKESKKPPAKLQPR (SEQ ID NO: 3) (PEPTIDE (1)..(28) Amino acid sequence for rat endogenous peptides of growth hormone secretagogue receptor; listed as Rattus norvegicus) | increase of intracellular calcium was observed | responded | increased | –
2 | ghrelin: 28-residue peptide hormone, third amino acid from the N terminus acylated with fatty acid (n-octanoyl); acts on GHS-R1a (GSS(Octanoyl)FLSPEHQRVQQRKESKKPPAKLQPR; UniProt Q9UBU3 24-51, looked up) [reference compound] | – | responded | – | –
3 | desacyl ghrelin (1-15)-NH2: Peptide of the N terminus to the 15th amino acid residue of desacyl ghrelin, the 15th amino acid amidated (GSSFLSPEHQKAQQR-NH2; listed as Rattus norvegicus) | – | – | – | increased
